This is an account of results in patent US20250032423A1, “HERBAL BIOACTIVES BASED IMMUNOSTIMULANT FORMULATION FOR POULTRY BIRDS & CATTLE AND PREPARATION THEREOF” (Edhas Technologies Inc., priority 2023, published 2025).

Broadly, the MIC is the least concentration at which growth counts as inhibited.

Test [1] is described as follows: DPPH radical scavenging assay. (Loss of DPPH colour is used to gauge radical scavenging.)
The subject of a further test is Pseudomonas aeruginosa. Nature of the test: MIC and fractional inhibitory concentration index (FICI) against Pseudomonas aeruginosa.
A short description of test [2]: ABTS radical scavenging assay.

Molecules are shown by their SMILES.

As to `O=C1O[C@H]([C@@H](O)CO)C(O)=C1O` [Ascorbic acid], the “IC50 (DPPH)” value in test [1] is given as 10 ppm. In addition, the “% Inhibition (DPPH scavenging)” value in test [1] (10 ppm) worked out at 58.80%; in test [1] (25 ppm), 64.65%; in test [1] (50 ppm) it was 66.42%; in test [1] (100 ppm) it was 71.18%; in test [1] (250 ppm) it was 87.60%; in test [1] (500 ppm), 90.65%.
On to `Cc1ccc(C(C)C)c(O)c1` [Thymol], for which the minimum inhibitory concentration (MIC) in the test with Pseudomonas aeruginosa is 9200 µg/mL.
On the same count and under the same terms, the value for `C=CCc1ccc(O)c(OC)c1` [Eugenol] was 10100 µg/mL.
For `Cc1c(C)c2c(c(C)c1O)CCC(C)(C(=O)O)O2` (stereo not drawn) [Trolox], in test [2], the “IC50 (ABTS)” value is reported as 10 ppm. The “% Inhibition (ABTS scavenging)” value in test [2] (10 ppm) is 54.48%; in test [2] (25 ppm), 63.01%; in test [2] (50 ppm) it was 73.1%; in test [2] (100 ppm), 86.71%; in test [2] (250 ppm) it was 89.12%; in test [2] (500 ppm) it was 94.08%. Further, the “% Inhibition (ABTS scavenging)” value in test [2] (1000 ppm) is reported as 99.24%.
Consider `COc1cc(/C=C/C(=O)CC(=O)/C=C/c2ccc(O)c(OC)c2)ccc1O` [Curcumin], for which the minimal inhibitory concentration (MIC) in the test with Pseudomonas aeruginosa worked out at 8100 µg/mL.
